48 compounds from the Deep4Chem optical property database can be followed below.

The nature of this data set: photoluminescence quantum yield (fraction); solvent given as SMILES.

In the case of `c1ccc(-c2nn(-c3ccccc3)c3nc4ccc(N(c5ccccc5)c5cccc6ccccc56)cc4cc23)cc1`, the photoluminescence quantum yield runs as follows: (in C1CCCCC1) 0.57; (in C1CCOC1) 0.57; (in CC#N) 0.41; (in CC(C)=O) 0.53; (in CCCCCl) 0.56; (in CCCCOCCCC) 0.56. The photoluminescence quantum yield (in CN(C)C=O) stood at 0.47.

`COc1ccc2c(c1)c1ccccc1n2-c1nc2ccccc2nc1-n1c2ccccc2c2cc(OC)ccc21` yielded a photoluminescence quantum yield (in Cc1ccccc1) of 0.13.

As to `c1ccc(-p2c3ccccc3c3sc4ccccc4c32)cc1` (stereo not given), the photoluminescence quantum yield (in ClCCl) turned out to be 0.24.

In the case of `Oc1cc2ccc3cc(O)cc4ccc(c1)c2c34`, the photoluminescence quantum yield (in CO) turned out to be 0.93.

With `CCN(CC)c1ccc2c(c1)oc(=O)c1c(C)nc3c(c(C)nn3-c3ccccc3)c12`, the photoluminescence quantum yield reads like this: (in C1CCCCC1) 0.852; (in CCOC(C)=O) 0.733; (in CN(C)C=O) 0.562; (in CO) 0.428; (in ClCCl) 0.827.

For `Cc1ccc2ccc3cccc4ccc1c2c34`, the photoluminescence quantum yield by setting is: (in CCCCCC) 0.34; (in CO) 0.28; (in ClCCl) 0.45.

`Clc1ccc(/C=C/c2ccc(-c3nc4c5cccnc5c5ncccc5c4[nH]3)cc2)cc1`: the photoluminescence quantum yield is 0.42 (in C1CCOC1), 0.26 (in CC#N), 0.16 (in CO) and 0.34 (in ClCCl).

For `c1ccc(-c2nc3sc4ccccc4c3s2)cc1`, the photoluminescence quantum yield (in CS(C)=O) turned out to be 0.89.

`CCN(CC)c1ccc(-c2nc3cc(C(NC(=O)OC(C)(C)C)C(=O)OC)ccc3o2)c(O)c1` (stereo not given): the photoluminescence quantum yield by setting is: (in CC1CCCCC1) 0.11; (in CC#N) 0.43; (in CO) 0.08.

`CCCCCCCCOc1ccc(-c2c3c4n(c(-c5ccc(OCCCCCCCC)cc5)c3c3n2[B-](F)(F)[n+]2c(ccc5ccccc52)N=3)[B-](F)(F)[n+]2c(ccc3ccccc32)N=4)cc1` gave a photoluminescence quantum yield (in ClC(Cl)Cl) of 0.83.

In turn, `CCOC(=O)c1ccc2c(c1)[nH]c1c3ccc(C(=O)OCC)cc3[se]c21` showed a photoluminescence quantum yield (in CCCO) of 0.017.

Where the note is “in c1ccc2c(c1)c1ccccc1n2-c1ccc(-c2ccc(-n3c4ccccc4c4ccccc43)cc2)cc1”, `CC(C)(C(=O)c1ccc(N2c3ccccc3C(C)(C)c3ccccc32)cc1)C(=O)c1ccc(N2c3ccccc3C(C)(C)c3ccccc32)cc1` came in with a photoluminescence quantum yield of 0.64.

For the setting “in CCO”, `COc1ccccc1CC(=O)OCc1c(C)c(=O)n2c(=O)c(C)c(C)n12` came in with a photoluminescence quantum yield of 0.636.

Turning to `CC(C)(C)c1ccc(Oc2cc3c4c(cc(Oc5ccc(C(C)(C)C)cc5)c5c6c(Oc7ccc(C(C)(C)C)cc7)cc7c8c(cc(Oc9ccc(C(C)(C)C)cc9)c(c2c45)c86)C(=O)N(Cc2ccccc2)C7=O)C(=O)N(Cc2ccccc2)C3=O)cc1`, the photoluminescence quantum yield (in ClC(Cl)Cl) worked out at 0.73.

For `COc1ccc(-c2nc(-c3ccc(-c4nc(-c5ccc(OC)cc5)c(-c5ccc(OC)cc5)[nH]4)s3)[nH]c2-c2ccc(OC)cc2)cc1`, where the note is “in CC#N”, the photoluminescence quantum yield worked out at 0.62.

Compound `[O-]c1ccccc1-c1[nH+]c2c3cccnc3c3ncccc3c2n1-c1ccccc1` gave a photoluminescence quantum yield (in Cc1ccccc1) of 0.125.

For the compound `COc1cc(/C=C/c2cc(OC)c(-c3nc(-c4ccccc4)c(-c4ccccc4)[nH]3)cc2OC)c(OC)cc1/C=C/c1cc(OC)c(-c2nc(-c3ccccc3)c(-c3ccccc3)[nH]2)cc1OC`, the photoluminescence quantum yield amounted to 0.54 (in C1CCOC1), 0.24 (in CC#N), 0.42 (in CN(C)C=O) and 0.63 (in Cc1ccccc1).

Take `Cc1cc(C)c(B(c2cc(-c3ccc(C(F)(F)F)cc3)sc2-c2sc(-c3ccc(C(F)(F)F)cc3)cc2P(=O)(c2ccccc2)c2ccccc2)c2c(C)cc(C)cc2C)c(C)c1`: the photoluminescence quantum yield (in CO) came out at 0.41.

Where the note is “in C1CCCCC1”, `CC(C)(C)c1ccc2c(c1)Cc1cc(C(C)(C)C)ccc1-2` registered a photoluminescence quantum yield of 0.7.

Under “in ClC(Cl)Cl”, `O=Cc1ccc(Oc2ccc3c4c(cccc24)C(=O)N(CCO)C3=O)cc1` registered a photoluminescence quantum yield of 0.19.

For the compound `COc1ccc2c3c(c4ccc(OC)cc4c2c1)C1(c2ccccc2-c2ccccc21)c1ccccc1-3`, where the note is “in C1CCCCC1”, the photoluminescence quantum yield came to 0.21.

As to `Cc1cc(=O)oc2cc3cc(O)ccc3cc12`, the photoluminescence quantum yield is, setting by setting: (in CC#N) 0.02; (in CCO) 0.35.

In the case of `CCC1(CC)c2cc(C=C(C#N)C#N)ccc2-c2ccc(N(C)C)cc21`, the photoluminescence quantum yield reads like this: (in C1CCCCC1) 0.04; (in CC#N) 0.26; (in CCO) 0.18; (in CCOCC) 0.39; (in CS(C)=O) 0.24; (in ClCCl) 0.62. The same compound gave a photoluminescence quantum yield (in c1ccccc1) of 0.22.

In turn, `COc1ccc(/C=C/c2nc3c4ccccc4c4ccccc4c3o2)cc1` gave a photoluminescence quantum yield (in CC#N) of 0.35.

As for `CC1(C)c2ccccc2N(c2ccc(-c3ccc(C#N)c(C#N)n3)cc2)c2ccccc21`, the photoluminescence quantum yield was 0.489 (in Cc1ccccc1) and 0.904 (in N#Cc1ccc2c(c1)c1ccccc1n2-c1cccc(-n2c3ccccc3c3ccccc32)c1).

For the setting “in C1CCCCC1”, `CCC(C)(C)c1ccc2c(c1)C(CC)(CC)c1cc(-c3ccc(-c4ccc5c(c4)C(CC)(CC)c4cc(C(C)(C)CC)ccc4-5)cc3)ccc1-2` showed a photoluminescence quantum yield of 1.

On to `C/C(=C\c1ccc(Cl)cc1)c1nc2ccccc2s1`, for which the photoluminescence quantum yield is, setting by setting: (in C1CCCCC1) 0.03; (in CO) 0.005.

`CC1(C)Cc2c(c3ccccc3c3nc4ccccc4nc23)O1` showed a photoluminescence quantum yield (in C1CCCCC1) of 0.082; a photoluminescence quantum yield (in C1CCOC1) of 0.13; a photoluminescence quantum yield (in CN(C)C=O) of 0.44; a photoluminescence quantum yield (in CO) of 0.37; a photoluminescence quantum yield (in ClC(Cl)Cl) of 0.26; a photoluminescence quantum yield (in c1ccccc1) of 0.2.

As to `CCn1c2ccccc2c2cc(-c3cc(-c4ccc5c(c4)c4ccccc4n5CC)nc(-c4ccc(C#N)cc4)n3)ccc21`, the photoluminescence quantum yield runs as follows: (in C1CCOC1) 0.08; (in CCOC(C)=O) 0.09; (in CN(C)C=O) 0.07; (in Cc1ccccc1) 0.34; (in ClCCl) 0.11.

As to `COC(=O)c1nc2cnc(N(C)C)nc2n1Cc1ccccc1`, the photoluminescence quantum yield by setting is: (in C1COCCO1) 0.83; (in CC#N) 0.6; (in CO) 0.17; (in ClCCl) 0.81.

In turn, `CCCCCCCCOc1ccc2c3c(c4ccc(OCCCCCCCC)cc4c2c1)C(C)(C)c1ccccc1-3` registered a photoluminescence quantum yield (in C1CCCCC1) of 0.24.

`F[B-]1(F)n2c(/C=C/c3ccc(C(=C(c4ccccc4)c4ccccc4)c4ccccc4)cc3)ccc2C(c2ccc(C(=C(c3ccccc3)c3ccccc3)c3ccccc3)cc2)=C2C=CC(/C=C/c3ccc(C(=C(c4ccccc4)c4ccccc4)c4ccccc4)cc3)=[N+]21`: the photoluminescence quantum yield (in C1CCOC1) was 0.503.

`Cc1cccn2c1cc1c3ccccc3nc(-c3ccc(Cl)o3)c12`: where the note is “in CS(C)=O”, the photoluminescence quantum yield was 0.31.

As to `C=Cc1cc2cc3c(cc2oc1=O)OCO3`, the photoluminescence quantum yield (in CC#N) was 0.65.

On to `NCc1ccc2ccc3cccc4ccc1c2c34`, for which the photoluminescence quantum yield runs as follows: (in C1CCCCC1) 0.38; (in CC#N) 0.52; (in CO) 0.3; (in ClC(Cl)Cl) 0.07.

As to `O=C1[C@@H]2[C@H](C(=O)N1c1cccc3cc4ccccc4cc13)[C@@H]1C=C[C@H]2C1`, the photoluminescence quantum yield (in ClC(Cl)Cl) is 0.26.

Consider `Cc1cccc(C)c1/C=C/c1nc(N2CCOCC2)c2c([n+]1[O-])CCCC2`, for which, under “in ClCCl”, the photoluminescence quantum yield was 0.29.

With `Cc1cc(C)c(C2=C3C=C(c4ccccc4)C(c4ccccc4)=[N+]3[B-](F)(F)n3c2cc(-c2ccccc2)c3-c2ccccc2)c(C)c1`, the photoluminescence quantum yield stood at 0.94 (in C1CCCCC1); 0.9 (in C1CCOC1); 0.87 (in CC#N); 0.75 (in Cc1ccccc1); 0.74 (in ClCCl).

On to `COc1cc2c3c(c4cc(OC)c(OC)c(OC)c4c2c(OC)c1OC)=[N+]1C(=C(c2c(C)cc(C)cc2C)c2cc4c5cc(OC)c(OC)c(OC)c5c5c(OC)c(OC)c(OC)cc5c4n2[B-]1(F)F)C=3`, for which the photoluminescence quantum yield is, setting by setting: (in C1CCCCC1) 0.1; (in C1CCOC1) 0.001; (in CC#N) 0.001; (in Cc1ccccc1) 0.001; (in ClCCl) 0.001.

`COCCC1=Cc2nc1ccc1[nH]c(cc1CCOC)c1nc(ccc3[nH]c2cc3CCO)C(CCOC)=C1`: the photoluminescence quantum yield (in Cc1ccccc1) was determined as 0.32.

With `COc1ccc2c(c1)[nH]c1c3[nH]c4cc(OC)ccc4c3c3nsnc3c21`, the photoluminescence quantum yield reads like this: (in CN(C)C=O) 0.47; (in Cc1ccccc1) 0.5; (in ClCCl) 0.5.

For `Cc1ccc(C2=[N+]3C(=Cc4ccc(C)n4[B-]3(F)F)c3ccccc32)[nH]1`, the photoluminescence quantum yield by setting is: (in C1CCOC1) 0.81; (in CC#N) 0.8; (in CCCCCC) 0.83; (in CO) 0.83; (in Cc1ccccc1) 0.78; (in ClCCl) 0.79.

Take `CCN(CC)c1ccc2c(c1)C(C)(C)C(=O)C=C2`: the photoluminescence quantum yield (in O) is 0.09.

In the case of `CCCC1(CCC)c2cc(C=C(C#Cc3ccccc3)C#Cc3ccccc3)ccc2-c2ccc(C=C(C#Cc3ccccc3)C#Cc3ccccc3)cc21`, the photoluminescence quantum yield (in ClC(Cl)Cl) came out at 0.31.

Consider `CN(C)c1ccc(C#Cc2cc3ccc4cc(C#Cc5ccc(N(C)C)cc5)cc5ccc(c2)c3c45)cc1`, for which the photoluminescence quantum yield (in Cc1ccccc1) stood at 0.39.

Compound `COc1ccc(-c2ccc(OC)cc2)cc1` came in with a photoluminescence quantum yield (in C1CCCCC1) of 0.31.

`CN(CCO)c1ccc(/N=N/c2ccc([N+](=O)[O-])cc2)cc1` had a photoluminescence quantum yield (in CO) of 0.0028, a photoluminescence quantum yield (in OCC(O)CO) of 0.0011, a photoluminescence quantum yield (in OCCO) of 0.0014 and a photoluminescence quantum yield (in Oc1ccccc1) of 4.3e-05.

Regarding `CC(C)=CCN1C(=O)c2cccc3c2c(cc2nc(C)oc23)C1=O`, the photoluminescence quantum yield (in CCO) was 0.011.
